{
  "source": "patent US4411832A",
  "about": "“Polysaccharide matrices comprising macromolecular spacer arms for use as adsorbents in affinity chromatography techniques” (priority 1981, dated 1983)",
  "biological_target": "T1, estradiol receptor (Bos taurus, UniProt P49884)",
  "T1 construct": "incubated in suspension with varying concentrations of [^3 H]estradiol and with the uterine supernatant; from tissue; host or cells: uterus (uterine supernatant)",
  "T1 sequence (P49884 1-596)": "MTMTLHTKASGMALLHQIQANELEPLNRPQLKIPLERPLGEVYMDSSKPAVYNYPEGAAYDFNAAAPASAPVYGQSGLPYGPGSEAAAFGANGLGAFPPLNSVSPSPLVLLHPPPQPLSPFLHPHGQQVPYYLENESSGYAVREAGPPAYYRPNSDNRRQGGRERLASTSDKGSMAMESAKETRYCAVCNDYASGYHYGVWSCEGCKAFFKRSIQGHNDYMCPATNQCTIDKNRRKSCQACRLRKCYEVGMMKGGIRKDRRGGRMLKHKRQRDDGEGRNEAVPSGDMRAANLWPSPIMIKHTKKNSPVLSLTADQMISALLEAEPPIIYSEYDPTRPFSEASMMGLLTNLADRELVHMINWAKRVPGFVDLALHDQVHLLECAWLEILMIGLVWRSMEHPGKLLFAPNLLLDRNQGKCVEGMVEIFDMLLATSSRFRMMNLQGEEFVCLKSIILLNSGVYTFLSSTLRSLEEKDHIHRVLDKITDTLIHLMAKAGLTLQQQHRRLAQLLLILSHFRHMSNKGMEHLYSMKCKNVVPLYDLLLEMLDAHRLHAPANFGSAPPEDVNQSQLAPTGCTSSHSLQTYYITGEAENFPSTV",
  "assay": "Affinity of the estradiol receptor for agarose-estradiol derivatives (incubation with [3H]estradiol and uterine supernatant, reciprocal plots)",
  "assay_type": "binding",
  "conditions": "free ligand, uterine supernatant, estimated, read-out: dissociation constant",
  "experimental": "Experiments were performed to estimate the affinity of the estradiol receptor for the macromolecular agarose-estradiol derivatives to compare the relative affinities of the various derivatives. The adsorbents are incubated in suspension with varying concentrations of [^3 H]estradiol and with the uterine supernatant, and the data were plotted in reciprocal plots to estimate the comparative affinities toward the estradiol receptor.",
  "data": [
    {"smiles": "C[C@]12CC[C@@H]3c4ccc(O)cc4CC[C@H]3[C@@H]1CC[C@@H]2OC(=O)CCC(=O)O", "note": "[17β-estradiol 17-hemisuccinate]", "values": [
      {"measurement": "Kd", "value": "~700", "unit": "nM"}
    ]}
  ]
}
